17 compounds from patent US9186361B2, “Compounds and compositions for the treatment of parasitic diseases” (Novartis AG, priority 2013, dated 2015) can be followed below.

As usually defined, the EC50 is the concentration at which the effect is half-maximal.

Common to all, as to format: cell-based
The test system of assay [1] is Trypanosoma cruzi amastigotes cultured in 3T3 fibroblast cells. In words: Assay for proliferation of kinetoplastid parasite Trypanosoma cruzi (beta-galactosidase/CPRG readout). The note with it: NIH3T3, 144 h, Tulahuen strain in 3T3 cells, 6 day incubation, read-out: T cruzi EC50. The source says:
Compounds of the invention can be assayed to measure their capacity to inhibit proliferation of kinetoplastid parasite Trypanosoma cruzi. The screening procedure is for identifying compounds with inhibitor activity against Trypanosoma cruzi amastigotes cultured in 3T3 fibroblast cells. The assay is done using the mammalian stage (amastigotes) of T. cruzi that replicates in the intracellular space of host cells. The host cells are initially infected with the culture-derived trypomastigotes that rapidly invade and then divide as amastigotes. The protocol uses the Tulahuen strain of T. cruzi that has been engineered to express the E. coli beta-galactosidase gene (Lac-Z) (Antimicr. Agents Chemoth. 40:2592, 1996). This allows for a colorimetric readout by using the substrate CPRG and an absorbance plate reader.
3T3 fibroblast cells are re-suspended in RPMI-1640 medium without phenol red medium supplemented with 10% FBS (heat inactivated), 100 μg/ml penicillin, and 100 μg/ml streptomycin. Forty μL of suspension (1,000 cells) is dispensed into 384-well plates and incubated overnight at 37° C. temperature and in atmosphere containing 5% CO2. The following day, 100 nL of compounds of the invention in DMSO are added to plate wells containing 3T3 cells. At the same time control compounds (benznidazole and nifurtimox) and DMSO are added to plates to serve as the positive and negative controls, respectively. After that, 10 μL of media containing 10,000 T. cruzi trypomastigotes are added to each plate well and plates are placed back into incubators. After 6 day incubation, 10 μL of reagent solution (0.6 mM CPRG, 0.6% NP-40 in PBS) is added to plates and incubated at room temperature for 2 hours. Absorbance is then measured on SpectraMax Gemini fluorimeter to determine relative number of T. cruzi cells present in each plate well. The percentage inhibition of 50%, EC50, is calculated for each compound.

Assay [2] deals with Trypanosoma brucei Lister 427 strain. The assay can be described thus: Assay for proliferation of kinetoplastid parasite Trypanosoma brucei (Cell Titer Glo). The note with it: bloodstream form, 48 hours, read-out: T. brucei EC50. The source says:
The proliferation is quantified by the addition of Cell Titer Glo (Promega®) a luminescent cell viability assay that measures the number of viable cells in culture based on the quantification of cellular ATP amount, which is an indicator of metabolically active cells. The following assay illustrates the invention without in any way limiting the scope of the invention. This parasite proliferation assay measures the increase in parasite growth using an assay that measures ATP activity, Cell Titer Glo®.
Trypanosoma brucei Lister 427 strain is grown in HMI-9 Trypanosome media for T. brucei bloodstream form. 30 μl of HMI-9 media is dispensed into 384 well assay plates. 200 nL of compounds of the invention (in DMSO), including anti-trypanosome controls (Pentamidine and suramin), are then transferred into the assay plates, as well as DMSO alone to serve as a negative control for inhibition. Then 25 μl of a suspension of T. brucei culture in HMI-9 media is dispensed into the assay plates. The final concentration of parasites in culture corresponds to 1.7% of 0.5 uM ATP activity with Cell Titer Glo® in HMI-9 media. The plates are placed in a 37° C. incubator for 48 hours in an atmospheric environment containing 5% CO2. 40 μl of Cell Titer Glo® is dispensed into the plates. The plates are then read for luminescence. The percentage inhibition of 50%, EC50, is calculated for each compound.

In assay [3] the test system is Leishmania donovani axenic amastigote parasites. The assay can be described thus: Assay for Leishmania proliferation in vitro (axenic amastigotes, Cell TiterGlo). The note with it: 48 h, 2 day incubation, read-out: L. donovani amastigotes EC50. The procedure, abridged: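 L. donovani axenic amastigotes (9600 per well) are cultured with compound for 2 days at 37° C, 5% CO2 in RPMI-based medium at pH 5.5. Viability is read by CellTiterGlo luminescence, and EC50 is calculated.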
(In general: ATP-based viability assays read luminescence as a measure of living cells.)

For assay [4], the system named is L. donovani HU3 strain in mouse peritoneal macrophages. In words: Proliferation of L. donovani in mouse peritoneal macrophages (SybrGreen, high-content imaging). The note with it: Leishmania donovani, Peritoneal macrophage, 120 h; infected mouse peritoneal macrophages, 5 days; read-out: L. donavani Macrophage EC50. The procedure, abridged: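 Peritoneal macrophages from uninfected BALB/c mice were infected for 24 h with spleen-derived amastigotes (9-11 week infected mice), then exposed to compound for 5 days at 37° C. Fixed cells stained with SybrGreen and parasite nuclei counted by high-content imaging; EC50 calculated from inhibition.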

Consider `CC(C)OC(=O)Nc1cnc2nc(-c3cc(NC(=O)c4ccco4)ccc3Cl)[nH]c2c1` [Example 2, propan-2-yl N-{2-[2-chloro-5-(furan-2-amido)phenyl]-1H-imidazo[4,5-b]pyridin-6-yl}carbamate], for which the EC50 was 142 nM in assay [1], 39 nM in assay [2], 0.19 µM in assay [3] and 315 nM in assay [4].

Consider `CC(C)OC(=O)Nc1cnc2nc(-c3cccc(NC(=O)c4ccc(F)o4)c3)[nH]c2c1` [Example 78, propan-2-yl N-{2-[3-(5-fluorofuran-2-amido)phenyl]-1H-imidazo[4,5-b]pyridin-6-yl}carbamate], for which the 50% effective concentration (EC50) in assay [1] turned out to be 1440 nM; in assay [2] it was 200 nM; in assay [3] it was 4.7 µM; in assay [4], 1390 nM.

For the compound `O=C(Nc1ccc(Cl)c(-c2nc3ncc(NC(=O)C4(O)CC4)cc3[nH]2)c1)c1ccco1` [Example 35, N-(4-chloro-3-{6-[(1-hydroxycyclopropane)amido]-1H-imidazo[4,5-b]pyridin-2-yl}phenyl)furan-2-carboxamide], the EC50 in assay [1] was over 20000 nM; in assay [2], 907 nM; in assay [3], 11.4 µM; in assay [4], over 50000 nM.

In the case of `O=C(C[C@H]1CCNC1)Nc1cnc2nc(-c3cc(NC(=O)c4ccco4)ccc3Cl)[nH]c2c1` [Example 34, N-[4-chloro-3-(6-{2-[(3R)-pyrrolidin-3-yl]acetamido}-1H-imidazo[4,5-b]pyridin-2-yl)phenyl]furan-2-carboxamide], the EC50 in assay [1] is over 20000 nM; in assay [2], 15200 nM; in assay [3], over 25 µM; in assay [4] it was over 50000 nM.

Turning to `O=C(Nc1cccnc1)Nc1cnc2nc(-c3cc(NC(=O)c4ccco4)ccc3Cl)[nH]c2c1` [Example 21, N-[4-chloro-3-(6-{[(pyridin-3-yl)carbamoyl]amino}-1H-imidazo[4,5-b]pyridin-2-yl)phenyl]furan-2-carboxamide], the EC50 in assay [1] is over 20000 nM; in assay [2], 1590 nM; in assay [3], 17.7 µM; in assay [4], over 50000 nM.

Take `O=C(Nc1ccc(Cl)c(-c2nc3ncc(NC(=O)C4CC(F)(F)C4)cc3[nH]2)c1)c1ccco1` [Example 57, N-(4-chloro-3-{6-[(3,3-difluorocyclobutane)amido]-1H-imidazo[4,5-b]pyridin-2-yl}phenyl)furan-2-carboxamide]: the EC50 in assay [1] came out at 7400 nM; in assay [2] it was 500 nM; in assay [3], 8.2 µM; in assay [4] it was 12800 nM.

Take `O=C(C[C@@H]1CCNC1)Nc1cnc2nc(-c3cc(NC(=O)c4ccco4)ccc3Cl)[nH]c2c1` [Example 32, N-[4-chloro-3-(6-{2-[(3S)-pyrrolidin-3-yl]acetamido}-1H-imidazo[4,5-b]pyridin-2-yl)phenyl]furan-2-carboxamide]: the half-maximal effective concentration (EC50) was over 20000 nM in assay [1], 7800 nM in assay [2], over 25 µM in assay [3] and over 50000 nM in assay [4].

As to `CC(C)(COC(=O)Nc1cnc2nc(-c3cc(NC(=O)c4ccco4)ccc3Cl)[nH]c2c1)NC(=O)OC(C)(C)C` [Example 15, tert-butyl N-{1-[({2-[2-chloro-5-(furan-2-amido)phenyl]-1H-imidazo[4,5-b]pyridin-6-yl}carbamoyl)oxy]-2-methylpropan-2-yl}carbamate], the half-maximal effective concentration (EC50) in assay [1] was 1850 nM; in assay [2] it was 640 nM; in assay [3], 5.1 µM; in assay [4] it was 8700 nM.

Turning to `CCOC(=O)Nc1cnc2nc(-c3cccc(NC(=O)c4ccc(F)o4)c3)[nH]c2c1` [Example 3, ethyl N-{2-[3-(5-fluorofuran-2-amido)phenyl]-1H-imidazo[4,5-b]pyridin-6-yl}carbamate], the EC50 in assay [1] stood at 2230 nM; in assay [2] it was 230 nM; in assay [3], 7.7 µM; in assay [4], 2470 nM.

`CC1(C)CC(C(=O)Nc2cnc3nc(-c4cc(NC(=O)c5ccco5)ccc4Cl)[nH]c3c2)C1` [Example 56, N-(4-chloro-3-{6-[(3,3-dimethylcyclobutane)amido]-1H-imidazo[4,5-b]pyridin-2-yl}phenyl)furan-2-carboxamide]: the EC50 in assay [1] was found to be 1230 nM; in assay [2], 346 nM; in assay [3], 2.96 µM; in assay [4] it was 2230 nM.

Regarding `CC1(OC(=O)Nc2cnc3nc(-c4cc(NC(=O)c5ccco5)ccc4Cl)[nH]c3c2)CC1` [Example 49, 1-methylcyclopropyl N-{2-[2-chloro-5-(furan-2-amido)phenyl]-1H-imidazo[4,5-b]pyridin-6-yl}carbamate], the EC50 in assay [1] turned out to be 440 nM; in assay [2], 81 nM; in assay [3] it was 0.48 µM; in assay [4], 490 nM.

Regarding `O=C(Nc1ccc(Cl)c(-c2nc3ncc(NC(=O)C4CC4)cc3[nH]2)c1)c1ccco1` [Example 45, N-(4-chloro-3-{6-cyclopropaneamido-1H-imidazo[4,5-b]pyridin-2-yl}phenyl)-furan-2-carboxamide], the EC50 was found to be 2860 nM in assay [1], 115 nM in assay [2], 0.45 µM in assay [3] and 1160 nM in assay [4].

In the case of `O=C(CCCN1CCOCC1)Nc1cnc2nc(-c3cc(NC(=O)c4ccc(F)o4)ccc3Cl)[nH]c2c1` [Example 66, N-(4-chloro-3-{6-[4-(morpholin-4-yl)butanamido]-1H-imidazo[4,5-b]pyridin-2-yl}phenyl)-5-fluorofuran-2-carboxamide], the EC50 is over 20000 nM in assay [1], 2300 nM in assay [2], over 25 µM in assay [3] and 39200 nM in assay [4].

As to `Nc1cnc2nc(-c3cc(NC(=O)c4ccco4)ccc3Cl)[nH]c2c1` [Example 20, N-(3-{6-amino-1H-imidazo[4,5-b]pyridin-2-yl}-4-chlorophenyl)furan-2-carboxamide], the EC50 in assay [1] came to 4700 nM; in assay [2], 1380 nM; in assay [3] it was 13.6 µM; in assay [4], 18900 nM.

As for `N#CC1(C(=O)Nc2cnc3nc(-c4cc(NC(=O)c5ccco5)ccc4Cl)[nH]c3c2)CC1` [Example 41, N-(4-chloro-3-{6-[(1-cyanocyclopropane)amido]-1H-imidazo[4,5-b]pyridin-2-yl}phenyl)-furan-2-carboxamide], the EC50 turned out to be 820 nM in assay [1], 80 nM in assay [2], 0.68 µM in assay [3] and 1450 nM in assay [4].

In the case of `O=C(Nc1ccc(Cl)c(-c2nc3ncc(NC(=O)C4CC4)cc3[nH]2)c1)c1ccc(F)o1` [Example 65, N-(4-chloro-3-{6-cyclopropaneamido-1H-imidazo[4,5-b]pyridin-2-yl}phenyl)-5-fluorofuran-2-carboxamide], the EC50 in assay [1] was 1020 nM; in assay [2], 23 nM; in assay [3] it was 1.47 µM; in assay [4], 570 nM.

Consider `CC(C)OC(=O)Nc1cnc2nc(-c3cc(NC(=O)N4CCCC4)ccc3Cl)[nH]c2c1` [Example 54, propan-2-yl N-(2-{2-chloro-5-[(pyrrolidin-1-yl)carbonylamino]phenyl}-1H-imidazo[4,5-b]pyridin-6-yl)carbamate], for which the EC50 was 1390 nM in assay [1], 68 nM in assay [2], 0.59 µM in assay [3] and 1860 nM in assay [4].
